Assay results from ChEMBL document CHEMBL1126912 (J Med Chem, 1993).

Legend:
[1] = target: Muscarinic acetylcholine receptor M3 (Cavia porcellus, UniProt Q8VH26); test: Antagonistic activity measured in isolated guinea pig […] (M3 receptor); type: functional, tissue-based; conditions: read-out: pA2 (converted)
[2] = target: T1, Muscarinic acetylcholine receptor M2 (Homo sapiens, UniProt P08172); test: Antagonistic activity measured in isolated guinea pig left atrium (M2 receptor); type: functional, tissue-based, Cavia porcellus, Cardiac atrium; conditions: target entry is the homologue from another species; read-out: pA2 (converted)
T1 sequence (P08172 whole entry): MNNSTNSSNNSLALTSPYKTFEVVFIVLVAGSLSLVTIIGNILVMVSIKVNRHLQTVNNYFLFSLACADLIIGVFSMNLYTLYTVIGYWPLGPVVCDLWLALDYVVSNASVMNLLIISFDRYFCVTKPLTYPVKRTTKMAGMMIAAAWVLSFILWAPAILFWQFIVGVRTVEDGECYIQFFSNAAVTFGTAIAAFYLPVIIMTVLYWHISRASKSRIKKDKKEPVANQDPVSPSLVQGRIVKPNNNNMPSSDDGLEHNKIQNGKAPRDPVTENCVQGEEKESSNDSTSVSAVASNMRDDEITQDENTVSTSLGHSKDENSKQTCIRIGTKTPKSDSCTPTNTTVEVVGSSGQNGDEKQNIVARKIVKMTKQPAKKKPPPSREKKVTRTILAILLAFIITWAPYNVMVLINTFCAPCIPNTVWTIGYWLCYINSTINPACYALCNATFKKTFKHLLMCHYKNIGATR

[3] = target: Muscarinic acetylcholine receptor M3 (Rattus norvegicus, UniProt P08483); test: Affinity constant measured against M3 muscarinic receptor in rat submaxillary gland; type: tissue-based
Muscarinic acetylcholine receptor M3 (Rattus norvegicus, UniProt P08483), sequence (P08483 whole entry): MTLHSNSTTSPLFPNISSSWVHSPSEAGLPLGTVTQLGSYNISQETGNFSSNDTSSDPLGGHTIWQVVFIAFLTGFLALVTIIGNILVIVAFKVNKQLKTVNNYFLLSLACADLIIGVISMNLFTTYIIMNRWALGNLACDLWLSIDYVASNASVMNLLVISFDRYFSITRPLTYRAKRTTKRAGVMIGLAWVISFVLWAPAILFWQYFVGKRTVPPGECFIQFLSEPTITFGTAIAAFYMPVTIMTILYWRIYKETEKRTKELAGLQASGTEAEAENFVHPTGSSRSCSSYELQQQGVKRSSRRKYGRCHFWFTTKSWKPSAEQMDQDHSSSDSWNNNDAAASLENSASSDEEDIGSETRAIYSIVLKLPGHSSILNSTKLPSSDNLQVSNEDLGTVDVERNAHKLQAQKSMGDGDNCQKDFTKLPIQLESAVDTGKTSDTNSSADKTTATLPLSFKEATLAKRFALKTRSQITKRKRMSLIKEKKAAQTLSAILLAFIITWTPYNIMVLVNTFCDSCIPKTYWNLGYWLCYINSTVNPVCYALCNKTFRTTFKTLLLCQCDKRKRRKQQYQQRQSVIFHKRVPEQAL

[4] = target: T2, Muscarinic acetylcholine receptor M4 (Rattus norvegicus, UniProt P08485); test: Affinity constant measured against M4 muscarinic receptor rat NG108-15 cells; type: cell-based
T2 sequence (P08485 whole entry): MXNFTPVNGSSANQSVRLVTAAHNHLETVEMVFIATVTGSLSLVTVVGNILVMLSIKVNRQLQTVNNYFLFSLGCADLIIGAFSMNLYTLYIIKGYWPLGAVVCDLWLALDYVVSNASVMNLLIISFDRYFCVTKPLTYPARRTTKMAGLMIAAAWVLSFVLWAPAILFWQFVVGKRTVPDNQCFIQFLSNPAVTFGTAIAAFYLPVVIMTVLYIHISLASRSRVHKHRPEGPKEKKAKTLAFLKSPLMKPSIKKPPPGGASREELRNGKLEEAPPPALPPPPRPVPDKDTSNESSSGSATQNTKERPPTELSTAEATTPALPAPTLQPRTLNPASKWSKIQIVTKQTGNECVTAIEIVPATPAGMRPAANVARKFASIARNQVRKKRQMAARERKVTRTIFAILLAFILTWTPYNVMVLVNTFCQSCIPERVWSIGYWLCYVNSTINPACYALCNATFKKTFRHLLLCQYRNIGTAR

[5] = tested on: Muscarinic acetylcholine receptors M2 & M3 (Cavia porcellus); test: Selectivity ratio between atrium (M2) and ileum (M3) was determined
[6] = target: T3, Muscarinic acetylcholine receptor M1 (Rattus norvegicus, UniProt P08482); test: Affinity constant measured against M1 muscarinic receptor in rat cortex
T3 sequence (P08482 whole entry): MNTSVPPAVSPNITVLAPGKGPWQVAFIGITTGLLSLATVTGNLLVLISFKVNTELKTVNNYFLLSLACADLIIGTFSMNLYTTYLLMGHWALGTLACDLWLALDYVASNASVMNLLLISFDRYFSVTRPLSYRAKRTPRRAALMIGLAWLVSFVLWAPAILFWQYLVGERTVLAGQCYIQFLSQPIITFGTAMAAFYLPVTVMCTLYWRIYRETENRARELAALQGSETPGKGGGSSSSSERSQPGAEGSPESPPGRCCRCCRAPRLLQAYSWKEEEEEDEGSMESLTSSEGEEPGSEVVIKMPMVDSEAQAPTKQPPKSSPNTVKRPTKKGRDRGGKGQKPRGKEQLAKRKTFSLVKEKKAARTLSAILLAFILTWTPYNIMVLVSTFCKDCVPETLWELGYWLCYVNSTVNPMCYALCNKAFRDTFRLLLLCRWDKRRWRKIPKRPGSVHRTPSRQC

Muscarinic acetylcholine receptor M3 (Cavia porcellus, UniProt Q8VH26), sequence (Q8VH26 whole entry): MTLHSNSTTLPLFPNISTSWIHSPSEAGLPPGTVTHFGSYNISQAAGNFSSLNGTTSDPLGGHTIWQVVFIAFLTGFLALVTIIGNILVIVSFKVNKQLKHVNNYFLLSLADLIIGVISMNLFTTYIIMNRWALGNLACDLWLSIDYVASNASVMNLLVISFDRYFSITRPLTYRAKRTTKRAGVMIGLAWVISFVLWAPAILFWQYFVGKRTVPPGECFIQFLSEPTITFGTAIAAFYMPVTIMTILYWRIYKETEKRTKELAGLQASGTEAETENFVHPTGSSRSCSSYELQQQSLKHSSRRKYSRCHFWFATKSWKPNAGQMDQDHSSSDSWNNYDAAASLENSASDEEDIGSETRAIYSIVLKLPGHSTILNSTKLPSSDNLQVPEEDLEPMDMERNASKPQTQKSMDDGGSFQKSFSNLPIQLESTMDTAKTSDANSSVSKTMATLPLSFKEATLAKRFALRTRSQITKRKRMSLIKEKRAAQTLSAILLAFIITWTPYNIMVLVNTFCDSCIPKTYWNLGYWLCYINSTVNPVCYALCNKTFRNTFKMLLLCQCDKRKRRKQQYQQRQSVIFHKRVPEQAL

**Q.** Which results are given for `CN(CCCCCCCCN(C)CCCCCCNCC(=O)N1c2ccccc2C(=O)Nc2cccnc21)CCCCCCNCC(=O)N1c2ccccc2C(=O)Nc2cccnc21`?
**A.** Kb [1]: 126 nM; Kb [2]: 0.724 nM

**Q.** Which results are given for `COc1ccccc1CNCCCCCCNCCCCCCCCNCCCCCCNCc1ccccc1OC` [METHOCTRAMINE]?
**A.** Ki [3]: 1100 nM; Kb [1]: 479 nM; Ki [4]: 26.3 nM

**Q.** For `COc1ccccc1CNCCCCCCN(C)CCCCCCCCN(C)CCCCCCNCc1ccccc1OC`, which Kb [1] is on record?
**A.** 603 nM

**Q.** What about the Kb [2] of the same compound?
**A.** 12.6 nM

**Q.** And the Selectivity ratio [5]?
**A.** 48

**Q.** What does the source list for `CN(CCCCCCCCN(C)CCCCCCN(CC(=O)N1c2ccccc2C(=O)Nc2cccnc21)CC(=O)N1c2ccccc2C(=O)Nc2cccnc21)CCCCCCNCC(=O)N1c2ccccc2C(=O)Nc2cccnc21` [TRIPITRAMINE]?
**A.** Ki [6]: 23.4 nM; Ki [3]: 646 nM; Kb [1]: 282 nM; Ki [4]: 11.7 nM

**Q.** What does the source list for `CCN(CC)CCCCC1CCN(CC(=O)N2c3ccccc3C(=O)Nc3cccnc32)CC1`?
**A.** Ki [6]: 25.1 nM; Ki [3]: 158 nM; Kb [1]: 251 nM; Ki [4]: 10 nM
